Results on eleven molecules are retold here after US7005447B2, “Food product comprising hydroxymatairesinol” (Hormos Nutraceutical Oy Ltd., priority 1999, dated 2006).

A short description of experiment [1]: Superoxide anion scavenging (xanthine-xanthine oxidase system, chemiluminescence). It counts as biochemical. To be noted: read-out: Superoxide anion scavenging, IC-50. As for the experimental part: Superoxide anion scavenging method was based on the superoxide anion produced in controlled conditions by xanthine-xanthine oxidase system and detection of the generated reactive oxygen species by luminometer (Ahotupa et al., 1997). The ability of test compounds to decrease the chemiluminescence was evaluated. IC-50 concentration (concentration which prevented the chemiluminescence by 50%) was calculated.

Experiment [2] relates to tert-butylhydroperoxide-induced lipid peroxidation (t-BuOOH-LP) in rat liver microsomes. In words: Inhibition of tert-butylhydroperoxide-induced lipid peroxidation (t-BuOOH-LP), chemiluminescence. Type of experiment: biochemical. As to the method: Inhibition of lipid peroxidation was evaluated on the basis of their potency to inhibit tert-butylhydroperoxide-induced lipid peroxidation (t-BuOOH-LP) in rat liver microsomes in vitro (Ahotupa et al. 1997). The test for the t-BuOOH-LP was carried out as follows: The buffer (50 mM sodium carbonate, pH 10.2, with 0.1 mM EDTA) was pipetted in a volume of 0.8 ml in the luminometer cuvette. Twenty microliters of diluted liver microsomes, final concentration 1.5 mg protein/ml, was added, followed by […] of luminol (0.5 mg/ml) and test chemicals. The test compounds were added to incubation mixtures in a small volume diluted in ethanol or dimethylsulphoxide (2% of incubation volume), and the lipid peroxidation potency was compared to that of the vehicle (ethanol or dimethyl sulphoxide). The reaction was initiated by 0.05 ml of 0.9 mM t-BuOOH at 33° C. Chemiluminescence was measured for about 45 min at 1 min cycles, and the area under curve (integral) was calculated. Chemiluminescence measurements were carried out using a Bio-Orbit 1251 Luminometer (Bio-Orbit, Turku, Finland) connected to a personal computer using dedicated software for the assays.

A further experiment has as its target T1, aromatase (Homo sapiens, UniProt P11511).
T1 construct: 800 μl cell suspension (1 million cells); endogenous in cells; host or cells: JEG-3 human choriocarcinoma cells
T1 sequence (P11511 1-503): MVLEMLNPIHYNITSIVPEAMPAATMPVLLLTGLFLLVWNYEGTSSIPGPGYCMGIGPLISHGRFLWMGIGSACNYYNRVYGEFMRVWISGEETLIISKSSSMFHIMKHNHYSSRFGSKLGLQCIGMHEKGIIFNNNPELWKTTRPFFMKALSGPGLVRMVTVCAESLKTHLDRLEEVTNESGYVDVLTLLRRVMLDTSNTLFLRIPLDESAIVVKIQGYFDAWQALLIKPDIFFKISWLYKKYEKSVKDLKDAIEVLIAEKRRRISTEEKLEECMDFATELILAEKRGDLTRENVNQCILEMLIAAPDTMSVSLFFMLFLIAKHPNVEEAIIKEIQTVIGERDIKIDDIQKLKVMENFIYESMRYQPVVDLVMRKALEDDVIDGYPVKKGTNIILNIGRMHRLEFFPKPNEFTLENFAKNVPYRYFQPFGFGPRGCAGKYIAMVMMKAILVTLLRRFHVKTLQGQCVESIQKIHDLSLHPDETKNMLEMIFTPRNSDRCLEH
In words: Aromatase inhibiting capacity in JEG-3 cells (3H-17β-estradiol formation from 3H-androstenedione). Type of experiment: cell-based. To be noted: 4 h incubation, FIG. 1. As for the experimental part:
The effects of HMR and structurally related lignans (enterolactone, enterodiol and 7-hydroxyenterolactone) were studied on formation of ^3H-17β-estradiol from ^3H-andostenedione in JEG-3 cells, human choriocarcinoma cell line. […] Cells were maintained in DMEM containing 10% fetal calf serum (FCS). The incubation mixture contained 50 μl ^3H-androst-4-ene, 3,17-dione (0.5 nM), 50 μl unlabelled androstenedione (0.5 nM), 100 μl test compounds (10 mM) and 800 μl cell suspension (1 million cells). After the incubation for 4 h, unlabelled carriers (androstenedione, testosterone, 17β-estradiol and estrone) were added. The steroids were extracted twice with 3.0 ml dichloromethane. […] The column system consisted of a guard column followed by a C18 150×3.9 mm ID analytical column (Technopak 10 C18 HPLC Technology; Wellington House, Cheshire, UK). The mobile phase was acetonitrile/water (35/65) and the flow rate was 1.2 ml/min. For in-line detection of the radioactive metabolites, the eluent of the HPCL column was continuously mixed with liquid scintillant and then monitored with in-line radioactivity detector.

In experiment [3] the test system is uterine growth of immature rats. In words: Immature rat uterotropic test. It counts as in vivo. To be noted: methodological control for non-estrogen-stimulated uterus. As to the method:
The estrogenicity HMR was evaluated by the uterotropic assay in immature rats which was performed as described earlier (Jordan et al. 1977), with the exception of treatment time which was 7 days instead of 3 days in the reference study. The treatment time was longer because of the expected weak estrogenicity of the test compound. The treatment of immature rats with an aromatase inhibitor (MPV-2213 ad), which prevents biosynthesis of estradiol, was used as a methodological control for non-estrogen-stimulated uterus.

The subject of the next experiment is uterine weight. To be noted: feeding during pregnancy and lactation to rats; effect not evident at later stages; Tou et al. 1998; cited from earlier work.
In experiment [4] the test system is chemically induced aberrant crypts in rat colon. Conditions: diet supplementation; Serraino and Thompson 1992, Jenab and Thompson 1996; cited from earlier work.
Experiment [5] has as its system antiestrogen-sensitive DMBA-induced breast cancer. Conditions: supplementation of a high-fat diet, rat; Serraino and Thompson, Thompson et al.; cited from earlier work.
The next experiment has as its system mouse uterine weight. To be noted: Setchell et al. 1981; cited from earlier work.
The subject of another experiment is MCF-7 cells. To be noted: Mousavi and Adlercreutz 1992; cited from earlier work.
Experiment [6] has as its system low density lipoprotein (LDL) oxidation. In words: Inhibition of LDL oxidation (CuCl2-induced, absorbance at 234 nm). It counts as biochemical. To be noted: CuCl2, 3 hrs at +37° C.; read-out: Inhibition of LDL oxidation, IC-50. As to the method: Inhibition of LDL oxidation was estimated as described by Ahotupa et al, 1996. Shortly: LDL was isolated by precipitation with buffered heparin. After resuspendation in phosphate buffer, 20 mM CuCl2 was added and the mixture was incubated for 3 hrs at +37° C. After this, LDL lipids were extracted with chloroform-methanol, dried under nitrogen, redissolved in cyclohexane and analyzed spectrophotometrically at 234 nm. The intensity of absorbance is indicative of LDL oxidation. To test the ability of different compounds to prevent LDL oxidation, the compounds were added to the incubation mixture prior addition of CuCl2. Possible interference of test compounds with the assay procedure was excluded by measuring the absorption at 234 nm before and after the incubation period.

Where [7] appears, read: Table 3 comparison with known antioxidants, read-out: Inhibition of lipid peroxidation, IC-50.
The mark [8] stands for this setting: lipid peroxidation inhibition test, rat liver microsomes, Table 2, read-out: Antioxidative capacity (t-BuOOH-LP) IC50.

Where two headings read alike, the source gives them in different places.

Consider `Cc1cc(C(C)(C)C)c(O)c(C(C)(C)C)c1` [BHT, Butylated hydroxytoluene], for which the IC50 in experiment [1] (value in mM) was > 1 mM; in experiment [2] (setting [7]) it was 15.3 µM. With `O=C1OC[C@H](Cc2cccc(O)c2)[C@H]1[C@@H](O)c1cccc(O)c1` [7-hydroxyenterolactone], the “Inhibition of aromatization (3H-17β-estradiol formation from 3H-androstenedione)” value (shortened to “Inhibition of aromatization”) at aromatase is listed as “no inhibitory effects”. As for `N#Cc1ccc(C(C(O)Cc2ccc(F)cc2)n2cncn2)cc1` (stereo not drawn) [MPV-2213 ad, reference compound], the “Effect on increase of uterine weight” value in [3] was “prevented the increase of uterine weight”.

With `COc1ccc(O)c(C(C)(C)C)c1` [BHA, Butylated hydroxyanisol], the IC50 stood at 0.015 mM in experiment [1] and 1.1 µM in experiment [2] (setting [7]). With secoisolariciresinol-diglycoside [SDG], the Uterine weight result with uterine weight is “increased the uterine weight at weaning”. Further, the “Formation of chemically induced aberrant crypts in rat colon” value in experiment [4] is “inhibited the formation”. In addition, the “Development of DMBA-induced breast cancer” value in experiment [5] is reported as “prevented the development”. As to `COc1ccc(-c2oc3cc(O)cc(O)c3c(=O)c2O)cc1` [kaempferide, 3,5,7-trihydroxy-4′-methoxy-flavone], in [2] (setting [8]), the IC50 was 0.5 µM. `O=c1c(O)c(-c2ccc(O)c(O)c2)oc2cc(O)cc(O)c12` [quercetin, 3,3′,4′,5,7-pentahydroxy-flavone]: in experiment [2] (setting [8]), the IC50 was determined as 0.4 µM. `O=C1OCC(Cc2cccc(O)c2)C1Cc1cccc(O)c1` (stereo not drawn) [enterolactone, 2,3-bis-(3′-hydroxybenzyl)-butyrolactone]: the “Estrogenic response in mouse uterine weight” value in the experiment on mouse uterine weight is reported as “no estrogenic response”. In addition, the “Inhibition of aromatization” value at aromatase is recorded as “dose-dependent inhibition”. Also, the IC50 in experiment [2] (setting [8]) was 15.9 µM. In the experiment on MCF-7 cells, the “Estrogenic potency in MCF-7 cells” value is listed as “weak estrogenic potency”.

As for `O=c1c(O)c(-c2ccc(O)cc2)oc2cc(O)cc(O)c12` [kaempferol, 3,4′,5,7-tetrahydroxy-flavone], the IC50 in experiment [2] (setting [8]) was determined as 0.9 µM. For the molecule `Cc1c(C)c2c(c(C)c1O)CCC(C)(C(=O)O)O2` (stereo not drawn) [TROLOX], the figures for the IC50 in experiment [1], in experiment [2] (setting [7]) and in experiment [6] were 0.025 mM, 0.02 µM and 2.7 µM, respectively. On to `OCC(Cc1cccc(O)c1)C(CO)Cc1cccc(O)c1` (stereo not drawn) [enterodiol, 2,3-bis-(3′-hydroxybenzyl)-butane-1,4-diol], for which the “Inhibition of aromatization” value at aromatase is given as “noninhibitory”. The IC50 in experiment [2] (setting [8]) is 12.7 µM.
